Entries after “also recorded” stand apart in the source; their conditions may differ. Where no end group is shown, it is not given here.
B1: fibrin fragment E: fibrin fragment E (55 kD), used digoxygenin labelled in binding experiments (protein)
chain 1: GPRVVERHQSACKDSDWPFCSDEDWNYKCPSGCRMKGLIDEVNQDFTNRINKLKNSLFEYQK
chain 2: GHRPLDKKREEAPSLRPAPPPISGGGYRARPAKAAATQKKVERKAPDAGGCLHADPDLGVLCPTGCQLQEALLQQERPIRNSVDELNNNVEAVSQTSSSSFQYMYLLK
chain 3: YVATRDNCCILDERFGSYCPTTCGIADFLSTYQTKVDKDLQSLEDILHQVENKTSEVKQLIK

How the values were obtained:
HUVEC and fibroblasts [1] = assay: BrdU ELISA cell proliferation cytotoxicity assay; format: cell-based, human; conditions: for cytotoxicity / cell proliferation, BrdU assay: HUVEC and fibroblast monocultures, 24 hours
Procedure: (§1) In order to determine whether the fibrin E analogue peptides WTM33, WTM34, WTM35, WTM36, and WTM37 are cytotoxic when applied to the HUVEC and fibroblasts used in the Angiosys™ angiogenesis assay, these reagents were examined in two different cytotoxicity assays. To simplify performance of these assays and discriminate between fibroblasts and HUVEC, cells were grown in monocultures rather than together and then treated with the experimental reagents as described below.
Cytotoxicity of the fibrin E peptide analogues was also determined by examining cell proliferation, using a commercial BrdU ELISA (Roche Molecular Biochemicals) performed according to the manufacturer's instructions. This assay quantifies DNA synthesis as a measure of cellular proliferation, as stimulation or inhibition of cell replication will require a concomitant change in the rate of DNA synthesis. Measurement of DNA synthesis is achieved by incubating proliferating cells in medium in which thymidine has been replaced with the pyrimidine analogue 5-bromo-2′-deoxyuridine (BrdU). Once incorporated into the cellular DNA, BrdU is measured by immunoassay. Briefly, HUVEC and fibroblasts were seeded as monocultures into 96 well plates at a density of 5×10^3 cells per well, to a final volume of 100 μl per well in endothelial cell culture medium. At the end of an initial culture period of 72 hours under standard conditions, while the cells were still proliferating, fibrin E analogue peptides were added to a range of final concentrations, as shown in the FIG. 8. Each treatment concentration of each peptide was administered to four replicate wells. Control cells received standard medium without test compounds. The cells were incubated for 24 hours with the test compounds, before 10 μl of stock BrdU solution (100 μM) was added to give a final concentration of 10 μM BrdU, and the cells were incubated for a further 2 hours. The test medium was then removed from the cells and replaced with 200 μl per well of Fixing/Denaturing solution, which was incubated on the cells for a further 30 minutes at room temperature. This was then replaced with 100 μl per well anti-BrdU-POD (mouse monoclonal clone BMG 6H8, Fab fragments conjugated to peroxidase) prepared as directed, which was left on the cells for a further 90 minutes at room temperature. The antibody conjugate was then removed from the wells by rinsing three times in 200 μl per well of washing buffer (PBS) before 100 μl well substrate solution (tetramethyl-benzidine) was added and incubated at room temperature until colour development was sufficient for photometric detection (approximately 15 minutes). Absorbance at 370 nm was measured on a multi-well plate ELISA plate reader (Dynatech), with a reference wavelength of 492 nm. Mean absorbance values from each group of four wells were calculated and expressed as a percentage±standard deviation of the mean value obtained from control wells incubated in the absence of fibrin E analogue peptide.

HUVEC and fibroblasts [2] = assay: Neutral Red cell metabolism cytotoxicity assay; format: cell-based, human; conditions: for cytotoxicity / cell viability, Neutral Red assay: HUVEC and fibroblast monocultures, 72 hours
Procedure: as §1
A Neutral Red cell metabolism assay was used to determine the cytotoxicity to HUVEC and fibroblasts of the fibrin E analogue peptides. This assay works on the basis of colorimetric measurement of a red dye which, is reported to be taken up into the lysosomes of uninjured cells. Thus the stronger the colour signal obtained from a well of cells, the greater the percentage of cells remaining viable within that well. HUVEC cells were inoculated into wells of 96 wells at a density of 5×10^3 cells per well, in endothelial cell culture medium. Fibroblasts were similarly seeded 5×10^3 cells per well. The cells were incubated for 24 hours under standard conditions to permit adherence and growth, and then treated for 72 hours with fresh medium containing fibrin E peptides over the same range of concentrations used in the Angiosys™ angiogenesis assay. For each concentration of each of the six peptides, four replicate wells of each cell type were treated and then assayed. Following incubation with the test compounds, the medium was removed and replaced with 200 μl per well of fresh medium containing 3.57 mg neutral red per 100 ml. The cells were incubated with this neutral red solution for 3 hours, after which this solution was decanted and replaced with 100 μl 1% formaldehyde/1% CaCl2. This was rapidly decanted and replaced in turn with 200 μl 50% ethanol/1% acetic acid, which was incubated at room temperature for 30 minutes to extract the neutral red from the cells. The plates were then read in a 96 well plate-format spectrophotometer, measuring absorbance at 540 nm. Mean absorbance values from each group of four wells were calculated and expressed as a percentage±standard deviation of the mean value obtained from control wells incubated in the absence of fibrin E analogue peptide.

Chick fibroblasts = assay: Cell immunohistochemistry; format: binding; conditions: 8 mg per ml; 2 hours
Procedure: Chick fibroblasts were cultured in a 25 cm^2 flask (Nunc) until confluent (approximately 3×10^6 cells). The cells were washed in PBS and then trypsinised and diluted to 3×10^5 cells per ml in Dulbecco modified medium with 10% foetal calf serum. […] of the cells suspension was plated into each well of a Nunc culture well slide. The cells were incubated overnight to allow adhesion and recovery from the passaging. Digoxygenin labelled fibrin fragment E was added to a final concentration of 8 mg per ml. Control wells contained unconjugated digoxygenin and PBS.
The cells were rinsed after 2 hours with PBS then washed 3 times in TBS followed by one wash in distilled water. The cells were then incubated for 2 hours with sheep anti-digoxygenin alkaline phosphatase. The slides were then washed three times in TBS and developed with NBT and BCIP in bicarbonate buffer pH 9.8. The slides were air dried and then mounted for observation of membrane staining under the microscope.

[3] = test system: Chick fibroblasts, Cos7, mouse 3T3 and human embryonic lung cells (HEL); assay: Cell binding assays (absorbance at 405 nm); conditions: 0-30 mg per well; 6 hours; each of the cell types
Procedure: Chick fibroblasts, Cos7, mouse 3T3 and human embryonic lung cells (HEL) were cultured in a 25 cm^2 flask (Nunc) until confluent (approximately 3×10^6 cells). The cells were trypsinised and resuspended at concentration of 1.3×10^5 cells/ml. 200 μl of this cell suspension was added to each well of a 96 well culture plate (Nunc). The cells were incubated overnight at 37° C. to allow adherence and recovery. The cells were then divided into three sections, digoxygenin controls, PBS controls and digoxygenin labelled fragment E tests. Increasing concentrations of digoxygenin and digoxygenin labelled fibrin fragment E were applied from 0-30 mg per well. The plates were incubated for 6 hours at 37° C. under culture conditions.
The plates were emptied of media and washed three times with PBS. The cells were then incubated for 2 hours with sheep antidigoxygenin alkaline phosphatase and developed with p-nitrophenyl phosphate in bicarbonate buffer pH 9.8. The plates were read on a Titertek Multiscan plate reader at 405 nm.

Molecule | cytotoxicity / cell proliferation, BrdU assay (HUVEC and fibroblasts [1]) | cytotoxicity / cell viability, Neutral Red assay (HUVEC and fibroblasts [2]) | cell proliferation, BrdU assay (HUVEC and fibroblasts [1]; higher concentrations) | cytotoxicity / cell survival, BrdU assay (HUVEC and fibroblasts [1]; 3, 12, 100 μg/ml) | cytotoxicity / cell survival, Neutral Red assay (HUVEC and fibroblasts [2]; 3, 12, 100 μg/ml) | binding to cells (membrane staining) (Chick fibroblasts) | binding to cells (absorbance at 405 nm compared to controls) [3]
QLQEALLQQERPIRN [WTM35, QLQEALLQQERPIRN] | not cytotoxic; also recorded: no toxicity | not cytotoxic; also recorded: no toxicity | – | – | – | – | –
SVDELNNNVEAVSQT [WTM36, SVDELNNNVEAVSQT] | not cytotoxic; also recorded: exhibited an effect on the cell proliferation | not cytotoxic; also recorded: no reduction in the viability of the cells | potential for reduction in cell proliferation | – | – | – | –
SSSSFQYMYLL [WTM37, SSSSFQYMYLL] | no toxicity to either cell type | no toxicity to either cell type | – | – | – | – | –
SLRPAPPPISGGGYR [WTM33, SLRPAPPPISGGGYR] | not cytotoxic | not cytotoxic | – | no effect on survival of either cell type | no effect on survival of either cell type | – | –
B1 | – | – | – | – | – | shown to bind | high absorbance

Reference: patent US20040132969A1, “Antibodies, peptides, analogs and uses thereof” (priority 2000, published 2004)
